# Assay results: PMC8844822, “SARM1 is a multi-functional NAD(P)ase with prominent base exchange activity, all regulated bymultiple physiologically relevant NAD metabolites” (iScience, 2022)
# Columns and labels:
# [1] = biological target: T1, Aplysia californica ADP ribosyl cyclase (Aplysia californica, UniProt P29241); conditions: for use as substrate (consumption rate): dinucleotide 250 μM, 25°C, 2–6 h; for effect of metal ion on activity: metal ions 1 mM
# T1 sequence (P29241 25-282): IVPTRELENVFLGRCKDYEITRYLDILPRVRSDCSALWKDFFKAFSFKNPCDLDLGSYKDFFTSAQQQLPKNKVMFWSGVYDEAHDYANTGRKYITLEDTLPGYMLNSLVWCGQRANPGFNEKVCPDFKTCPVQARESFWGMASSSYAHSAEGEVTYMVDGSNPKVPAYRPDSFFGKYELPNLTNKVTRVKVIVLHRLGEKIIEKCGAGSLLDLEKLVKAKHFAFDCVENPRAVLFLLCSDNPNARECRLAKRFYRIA
# Experimental: (§1) hSARM1 species were routinely assayed by the NAD/NADH-Glo^TM Assay (Promega) while both Aplysia cyclase and CD38 were assayed by fluorometry using ϵNAD ([Orsomando et al., 2000]). […] Other reagents used in addition to, or in place of those above are detailed in text or in figure legends, for example metal ions, free bases, dinucleotide analogues, mononucleotides, and ribosides. Assays were all carried out at 25°C except for temperature studies. Reactions were stopped by HClO4/K2CO3 and analysed by C18-HPLC as reported ([Mori et al., 2014]). Only the acid labile NADH and NADPH were treated with 1 N NaOH and neutralized using 1:1 vol of 1.73 M KH2CO3 while the highly hydrophobic metabolites vacor, VAD, VMN and VR, were analysed by a modified C18-HPLC method ([Buonvicino et al., 2018]). Reaction products were quantified from peak areas (see Figure 2A) based on coelution with standards (except for cyclic products from NAD analogues that were not available and were attributed based on UV-spectra and retention times as predicted). Rates were calculated as follows. Hydrolysis and cyclization were measured from product generation from the respective individual dinucleotide substrate used, e.g., free and cyclic ADP-ribosyl moieties from NAD (Figure 1B). A basal value for hydrolysis/cyclization was taken as sum of these latter two products. In addition to that value, base exchange or transglycosidation was calculated from the expected dinucleotide analog formed in the presence of the corresponding free base, e.g., AcPyrAD from AcPyr and NAD.
# (§2) The kinetic parameters were calculated from initial rates obtained from replicates via best-fitting analysis using the following Equation 1 for CD38 and Aplysia cyclase, or Equation 2 for hSARM1 SAM-TIR, or Equation 3 for hSARM1 full length(Equation 1) V =Vmax[S]/Km+[S] […] In that case, the resulting single curves were fit to Equation 3 as above to evaluate any competition between NMN and the substrate used (see Table 1).
# hCD38 [2] = biological target: T2, hCD38 (Homo sapiens, UniProt P28907); assay: NAD(P)ase activity by HPLC (kinetics, substrates, metal ions); format: biochemical; conditions: for use as substrate (consumption rate): dinucleotide 250 μM, 2–6 h; for effect of metal ion on activity: metal ions 1 mM
# T2 construct: a soluble fragment Val43-Ile300 with 6x-His tag at C terminus; 6xHis (C); purchased R&D Systems
# T2 sequence (P28907 43-300): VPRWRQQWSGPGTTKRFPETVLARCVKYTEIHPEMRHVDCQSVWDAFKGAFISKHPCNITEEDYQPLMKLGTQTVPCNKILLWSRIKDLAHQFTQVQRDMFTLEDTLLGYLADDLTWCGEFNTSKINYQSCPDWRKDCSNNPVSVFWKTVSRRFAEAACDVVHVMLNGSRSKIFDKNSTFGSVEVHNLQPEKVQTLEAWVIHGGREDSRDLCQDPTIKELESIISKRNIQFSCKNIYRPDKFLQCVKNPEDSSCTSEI
# Experimental: as §1, §2
# hSARM1 full length [3] = biological target: T3, hSARM1 full length (Homo sapiens, UniProt Q6SZW1); assay: as above; format: biochemical; conditions: hSARM1; for use as substrate (consumption rate): dinucleotide 250 μM, 25°C, 2–6 h; for effect of metal ion on activity: metal ions 1 mM
# T3 construct: Human recombinant SARM1 full length proteins (wild-type and E642A mutant); made in house
# T3 sequence (Q6SZW1 28-724): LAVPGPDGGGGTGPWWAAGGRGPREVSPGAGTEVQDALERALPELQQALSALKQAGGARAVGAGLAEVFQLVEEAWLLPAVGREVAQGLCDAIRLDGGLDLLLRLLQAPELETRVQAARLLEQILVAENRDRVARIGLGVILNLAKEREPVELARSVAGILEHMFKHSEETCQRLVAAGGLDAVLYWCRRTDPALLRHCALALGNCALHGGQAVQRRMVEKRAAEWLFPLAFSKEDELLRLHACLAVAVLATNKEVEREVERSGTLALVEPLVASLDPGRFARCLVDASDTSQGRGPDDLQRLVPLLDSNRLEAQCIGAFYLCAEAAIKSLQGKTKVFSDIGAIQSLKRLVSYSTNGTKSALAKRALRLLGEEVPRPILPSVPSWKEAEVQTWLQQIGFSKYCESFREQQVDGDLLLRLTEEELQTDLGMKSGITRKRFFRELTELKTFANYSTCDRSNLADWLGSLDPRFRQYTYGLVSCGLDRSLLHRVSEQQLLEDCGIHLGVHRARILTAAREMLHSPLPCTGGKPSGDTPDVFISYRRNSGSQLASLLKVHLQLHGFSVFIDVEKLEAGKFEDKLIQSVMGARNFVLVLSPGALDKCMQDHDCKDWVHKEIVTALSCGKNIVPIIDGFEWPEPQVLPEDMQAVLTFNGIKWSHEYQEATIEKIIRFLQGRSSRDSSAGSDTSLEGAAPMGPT
# Experimental: as §1, §2
# hSARM1 full length [4] = biological target: T3, hSARM1 full length; assay: Base exchange reactions at neutral pH (HPLC); format: biochemical; conditions: for increase of all hSARM1 activities by trigger (plateau): hSARM1 full length, NMN 0.2 mM or VMN 0.05 mM, NAD or NADP 250 μM with or without bases
# Experimental: (§3) Multiple time stops from individual assays as above were analyzed for linearity, then extents of hydrolysis (white bars), cyclization (red bars), or base exchange (black bars) were calculated from each corresponding product as shown in Figure 1B and STAR methods. […] See also Figures S3–S5, and Table S1
# as §1
# hCD38 [5] = biological target: T2, hCD38; assay: Base exchange reactions at neutral pH (HPLC); format: biochemical; conditions: NADP […] alone or + AcPyr 2 mM / Vacor 0.5 mM / Na 2 mM
# Experimental: as §3, §1
# [6] = hSARM1 full length +NMN 0.2 mM, NAD […]
# [7] = hSARM1 full length +NMN 0.2 mM, NADP […]
# [8] = hSARM1 full length +VMN 0.05 mM, NAD […]
# [9] = hSARM1 full length +VMN 0.05 mM, NADP […]
compound,measurement,setting,value
NC(=O)C1=CN([C@@H]2O[C@H](COP(=O)(O)OP(=O)(O)OC[C@H]3O[C@@H](n4cnc5c(N)ncnc54)[C@H](OP(=O)(O)O)[C@@H]3O)[C@@H](O)[C@H]2O)C=CC1 [NADPH],use as substrate (consumption rate),[1],negligible usage
same,use as substrate (consumption rate),"hCD38 [2]; hCD38, 25°C",negligible usage
same,use as substrate (consumption rate),hSARM1 full length [3],negligible usage
[Mg] [magnesium],effect of metal ion on activity,[1],no effect
same,effect of metal ion on activity,hCD38 [2]; hCD38,no effect
same,effect of metal ion on activity,hSARM1 full length [3],no effect
[Zn+2] [zinc],effect of metal ion on activity,[1],clear inhibition
same,effect of metal ion on activity,hCD38 [2]; hCD38,clear inhibition
same,effect of metal ion on activity,hSARM1 full length [3],clear inhibition
NC(=O)C1=CN([C@@H]2O[C@H](COP(=O)(O)OP(=O)(O)OC[C@H]3O[C@@H](n4cnc5c(N)ncnc54)[C@H](O)[C@@H]3O)[C@@H](O)[C@H]2O)C=CC1 [NADH],use as substrate (consumption rate),[1],negligible usage
same,use as substrate (consumption rate),"hCD38 [2]; hCD38, 25°C",negligible usage
same,use as substrate (consumption rate),hSARM1 full length [3],negligible usage
"Nc1ncnc2c1ncn2[C@@H]1O[C@H](COP(=O)(O)OP(=O)(O)OC[C@H]2O[C@@H]([n+]3cccc(C(=O)O)c3)[C@H](O)[C@@H]2O)[C@@H](O)[C@H]1O [NaAD, nicotinic acid adenine dinucleotide]",use as substrate (consumption rate),[1],negligible usage
same,use as substrate (consumption rate),"hCD38 [2]; hCD38, 25°C",negligible usage
same,use as substrate (consumption rate),hSARM1 full length [3],negligible usage
nicotinic acid adenine dinucleotide phosphate [NaADP],use as substrate (consumption rate),[1],negligible usage
same,use as substrate (consumption rate),"hCD38 [2]; hCD38, 25°C",negligible usage
same,use as substrate (consumption rate),hSARM1 full length [3],negligible usage
"NC(=O)c1ccc[n+]([C@H]2O[C@H](COP(=O)([O-])OP(=O)(O)OC[C@H]3O[C@@H](n4cnc5c(N)ncnc54)[C@H](O)[C@@H]3O)[C@@H](O)[C@H]2O)c1 [αNAD, alpha-NAD]",use as substrate (consumption rate),[1],no activity
same,use as substrate (consumption rate),"hCD38 [2]; hCD38, 25°C",no activity
same,use as substrate (consumption rate),hSARM1 full length [3],no activity
"NC(=O)c1ccc[n+]([C@@H]2O[C@H](COP(=O)([O-])O)[C@@H](O)[C@H]2O)c1 [NMN, nicotinamide mononucleotide]","cyclization, share of products",hSARM1 full length [4]; [6],9.51%
same,"hydrolysis, share of products",hSARM1 full length [4]; [6],90.49%
same,rate,"hSARM1 full length [4]; hSARM1 full length +NMN 0.2 mM, NAD […] alone or + free base",187.9 ±26.9 mU/mg
same,rate (relative fold),"hSARM1 full length [4]; hSARM1 full length +NMN 0.2 mM, NAD […], relative to NAD alone without trigger",8.61±1.23 fold
same,"cyclization, share of products",hSARM1 full length [4]; [7],~ 0.05%
same,"hydrolysis, share of products",hSARM1 full length [4]; [7],99.95%
same,rate,"hSARM1 full length [4]; hSARM1 full length +NMN 0.2 mM, NADP […] alone or + free base",117.3 ±4.72 mU/mg
same,rate (relative fold),"hSARM1 full length [4]; hSARM1 full length +NMN 0.2 mM, NADP […], relative to NADP alone without trigger",7.98 ±0.321 fold
same,increase of all hSARM1 activities by trigger (plateau),hSARM1 full length [4],8- to 10 fold
"O=C(NCc1ccc[n+]([C@@H]2O[C@H](COP(=O)(O)O)[C@@H](O)[C@H]2O)c1)Nc1ccc([N+](=O)[O-])cc1 [VMN, vacor mononucleotide]","cyclization, share of products",hSARM1 full length [4]; [8],8.79%
same,"hydrolysis, share of products",hSARM1 full length [4]; [8],91.21%
same,rate,"hSARM1 full length [4]; hSARM1 full length +VMN 0.05 mM, NAD […] alone or + free base",210.1 ±14.4 mU/mg
same,rate (relative fold),"hSARM1 full length [4]; hSARM1 full length +VMN 0.05 mM, NAD […], relative to NAD alone without trigger",9.63 ±0.660 fold
same,"cyclization, share of products",hSARM1 full length [4]; [9],0.64%
same,"hydrolysis, share of products",hSARM1 full length [4]; [9],99.36%
same,rate,"hSARM1 full length [4]; hSARM1 full length +VMN 0.05 mM, NADP […] alone or + free base",138.3 ±1.72 mU/mg
same,rate (relative fold),"hSARM1 full length [4]; hSARM1 full length +VMN 0.05 mM, NADP […], relative to NADP alone without trigger",9.41 ±0.117 fold
same,increase of all hSARM1 activities by trigger (plateau),hSARM1 full length [4],8- to 10 fold
nicotinamide adenine dinucleotide phosphate [NADP],Km,[1]; substrate as labelled,384 ± 0.17 µM
same,Vmax,[1]; substrate as labelled,"20,043 ± 724 mU/mg"
same,Vmax,"hCD38 [2]; hCD38, substrate as labelled",4376 ± 24.1 mU/mg
same,Km,"hCD38 [2]; hCD38, substrate as labelled, 25°C, pH 7.5",11.7 ± 0.88 µM
same,rate,hCD38 [5],3521 ±605 mU/mg
[Cu+2] [copper],effect of metal ion on activity,[1],clear inhibition
same,effect of metal ion on activity,hCD38 [2]; hCD38,clear inhibition
same,effect of metal ion on activity,hSARM1 full length [3],clear inhibition
"Nc1ncnc2c1ncn2[C@@H]1O[C@H](COP(=O)(O)OP(=O)([O-])OC[C@H]2O[C@@H]([n+]3cccc(CNC(=O)Nc4ccc([N+](=O)[O-])cc4)c3)[C@H](O)[C@@H]2O)[C@@H](O)[C@H]1O [VAD, vacor adenine dinucleotide]",use as substrate (consumption rate),[1],no activity
same,use as substrate (consumption rate),"hCD38 [2]; hCD38, 25°C",no activity
same,use as substrate (consumption rate),hSARM1 full length [3],no activity
"NC(=O)c1ccc[n+]([C@@H]2O[C@H](COP(=O)([O-])OP(=O)(O)OC[C@H]3O[C@@H](n4cnc5c(=O)[nH]c(N)nc54)[C@H](O)[C@@H]3O)[C@@H](O)[C@H]2O)c1 [NGD, nicotinamide guanine dinucleotide]","cyclization, share of total substrate consumption",hCD38 [2]; CD38,~80%
